The numbers were not newly measured in patent publication US20110008431A1, “THERAPEUTIC TABLET FOR POSTHERPETIC NEURALGIA AND METHOD OF TREATING POSTHERPETIC NEURALGIA” (TOYO BOSEKI KABUSHIKI KAISHA, priority 2007, published 2011), which cites them from elsewhere.

The test system of the data set is patient with neuropathic pain. The following applies: devazepide in combination with an opioid analgesic agent such as morphine, Patent Document 1.

For the compound `CN1C(=O)[C@@H](NC(=O)c2cc3ccccc3[nH]2)N=C(c2ccccc2)c2ccccc21` [devazepide], the “subjects who attained pain relief” value was 10 of 41.
